Data on one molecule can be found in PMC3486420, “In Vitro and In Vivo Characterizations of Chiglitazar, a Newly Identified PPAR Pan-Agonist” (PPAR Research, 2012).

Data set [1] concerns Wistar obese rats. More on the design: method as in PMID 16751799. To be noted: Wistar obese rats treated for 9–40 days ref 18; cited from earlier work.
In data set [2] the test system is Wistar rats. As to the kind of experiment: Influence in heart weight of Wistar rats, 6-month oral dosing. To be noted: for Increase in heart weight: 135 mg kg^−1 (~900 mg/m^2) oral daily, 6 months. In kind it is in vivo, rat. The method, then: Male and female Wistar rats of 6-week old were randomly divided into 4 groups, 5 for each male and female per group. Animals in different groups were orally treated daily with chiglitazar suspended in water at the doses of 15, 45, and 135 mg kg^−1, or vehicle (water), for 6 months. 24 h after the last treatment, animals were sacrificed and the weight of heart from individual animals was weighed.
Figure 5 Influence on heart weight and tissue distribution of chiglitazar in rats. (a) Wistar rats were orally administered daily with chiglitazar at the dose of 15, 45 and 135 mg kg^−1 for 6 months. 24 h after the last dosing, animals were sacrificed and the heart weight was evaluated. *P < 0.05 compared with control; n = 5 per group. (b) Male Wistar rats were orally administered with a single dose of ^3H-chiglitazar at 12.5 mg kg^−1 (radiation dose 31.7 MBq kg^−1). Rats were sacrificed at 1.5, 4, 8, and 24 h after treatment (n = 5 per time point), and various tissues/organs as indicated were taken for radioactivity measurement. The accumulated area under curves through 0 to 24 h (AUC0–24) was calculated based on individual tissue distribution measured at each time point. (c) The time course distribution of chiglitazar in different tissues at individual time point (1.5, 4, 8, 24 h). Data are expressed as mean ± SE.

The test system of data set [3] is beagle dogs. The data set can be described thus: Heart weight in beagle dogs, chronic treatment. To be noted: same regime (6 months), 54 mg kg^−1 (~1000 mg/m^2), data not shown. In kind it is in vivo, dog.
Data set [4] has as its system db/db mice. The data set can be described thus: Gene expression by RT-PCR in tissues of treated db/db mice. The format is in vivo, mouse. To be noted: 14 days oral, chiglitazar 20 mg kg^−1 compared with rosiglitazone 5 mg kg^−1. The method, then: Total RNA was extracted from cells or tissues with an RNeasy minikit (Qiagen, Valencia, CA, USA). The first-strand cDNA was synthesized using the oligo(dT) primers, followed by using SuperScript II reverse transcriptase (Invitrogen) according to the manufacturer's instructions. The PCR amplifications were performed in 10 μL of reaction mixture volume containing 0.8 μL of cDNA, 10 mM Tris-HCl (pH 8.3), 50 mM KCl, 1.5 mM MgCl2, 0.1% Triton X-100, 0.2 mM deoxynucleotide triphosphates, 0.4 μM primers, and 0.25 U of Taq polymerase (TaKaRa Biotechnology Co., Ltd, China). Taq DNA polymerase was added to each tube after a treatment of 2 min at 94°C. This was followed by 22–30 cycles of denaturation (23 s at 94°C), annealing (20 s at 55°C), extension (30 s at 72°C), and a final extension step of 2 min. PCR products were analyzed by electrophoresis on a 1.5% agarose gel stained with ethidium bromide.
Male db/db mice (BKS.Cg-m +/+ LEPR^db) in 6-7 weeks were purchased from The Jackson Laboratory (Bar Harbor, ME, USA). Male KKAy and C57BL/6J mice in 8–10 weeks were obtained from the Institute of Animal Science, Chinese Academy of Medical Sciences and Peking Union Medical College (Beijing, China). […] Plasma glucose levels were examined at various time points by Accu-Chek Advantage II Glucose Strips (Roche Diagnostics, Basel, Switzerland) and measured by Accu-Chek Advantage (Roche Diagnostics). […]

For data set [5], the target named is T1, PPARα (Homo sapiens, UniProt Q07869).
T1 sequence (Q07869 1-468): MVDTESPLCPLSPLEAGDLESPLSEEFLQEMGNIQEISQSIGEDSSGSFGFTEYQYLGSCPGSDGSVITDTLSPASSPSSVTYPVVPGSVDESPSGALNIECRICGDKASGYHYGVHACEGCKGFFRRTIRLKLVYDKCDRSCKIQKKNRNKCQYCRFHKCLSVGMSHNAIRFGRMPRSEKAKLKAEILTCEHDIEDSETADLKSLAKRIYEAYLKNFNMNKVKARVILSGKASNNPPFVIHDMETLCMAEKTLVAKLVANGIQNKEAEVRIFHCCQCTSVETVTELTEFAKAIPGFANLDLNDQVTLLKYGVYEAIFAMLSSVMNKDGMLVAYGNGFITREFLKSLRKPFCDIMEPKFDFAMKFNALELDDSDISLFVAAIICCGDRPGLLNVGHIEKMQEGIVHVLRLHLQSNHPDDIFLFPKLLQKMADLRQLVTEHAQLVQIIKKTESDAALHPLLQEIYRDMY
T1 sequence (P19793 1-462 partner): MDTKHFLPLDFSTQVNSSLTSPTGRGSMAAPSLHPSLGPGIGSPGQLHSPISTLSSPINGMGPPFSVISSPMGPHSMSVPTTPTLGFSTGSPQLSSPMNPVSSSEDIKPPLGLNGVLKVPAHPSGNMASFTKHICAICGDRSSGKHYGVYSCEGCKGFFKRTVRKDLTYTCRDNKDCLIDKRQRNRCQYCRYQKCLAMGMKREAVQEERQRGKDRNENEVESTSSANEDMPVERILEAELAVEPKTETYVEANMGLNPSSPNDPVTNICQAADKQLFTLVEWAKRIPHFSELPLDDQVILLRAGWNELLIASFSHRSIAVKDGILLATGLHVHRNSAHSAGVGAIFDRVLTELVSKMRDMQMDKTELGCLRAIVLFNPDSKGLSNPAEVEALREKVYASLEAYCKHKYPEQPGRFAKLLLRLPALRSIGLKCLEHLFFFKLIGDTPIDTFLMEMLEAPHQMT
As to the kind of experiment: PPARα transactivation reporter gene assay in SMMC-7721 cells. In kind it is cell-based.

For the molecule `O=C(c1ccc(F)cc1)c1ccccc1NC(Cc1ccc(OCCn2c3ccccc3c3ccccc32)cc1)C(=O)O` (stereo not shown) [Chi, 2-[(2-(4-fluorobenzoyl)phenyl)amino]-3-[4-(2-carbazolylethoxy)-phenyl]-propionic acid], the Optimal efficacy dose in data set [1] was 10 mg/kg. In addition, the “No-effect dose on heart weight (45 mg kg^−1) relative to optimal efficacy dose (10 mg kg^−1)” value in data set [2] (Wistar rats) is “about 4.5 times”. For the same molecule, in data set [2] (Wistar rats, 135 mg kg^−1, 6 months (data not shown)), the “Microscopical examination of weight-increased hearts” value was “minimal to mild myocardial hypertrophy”. Moreover, the Heart weight entry in data set [2] (Wistar rats, oral daily 6 months, doses as high as 45 mg kg^−1 (~300 mg/m^2)) is listed as “did not increase”; in data set [3] it was “did not induce significant increase”. Also, the “Increase in heart weight” value in data set [2] (female Wistar rats) is listed as “about 20%”; in data set [2] (male Wistar rats), about 12%. Moreover, in data set [4], the “Expression of UCP1 in adipose tissue” value is listed as “greater degree of upregulation”. This molecule also came in with an EC50 in data set [5] (24 h treatment, luciferase reporter, hRXR cotransfected, ia: inactive at 10 μM) of 1100 ± 300 nM. Also, the “PPARα % Max” value in data set [5] (max response compared with WY at 50 μM) came to 142%.
